These molecules were tested on Endogenous Huntingtin Protein (assay: Endogenous Huntingtin Protein Assay (Meso Scale Discovery ELISA-based electrochemiluminescence)). Conditions: MSD electrochemiluminescence, Table 1.
Format: cell-based
Experimental: Compounds of Formula (I) were tested using the Meso Scale Discovery (MSD) Assay provided in International Application No. PCT/US2016/066042, filed on Dec. 11, 2016 and claiming priority to United States Provisional Application U.S. 62/265,652 filed on Dec. 10, 2015, the entire contents of which are incorporated herein by reference.
The Endogenous Huntingtin Protein assay used in Example 1 was developed using the ELISA-based MSD electrochemiluminescence assay platform.
Endogenous Huntingtin Protein Assay
Meso Scale Discovery (MSD) 96-well or 384-well plates were coated overnight at 4° C. with MW1 (expanded polyglutamine) or MAB2166 monoclonal antibody (for capture) at a concentration of 1 μg/mL in PBS (30 μL per well). Plates were then washed three times with 300 μL wash buffer (0.05% Tween-20 in PBS) and blocked (100 μL blocking buffer; 5% BSA in PBS) for 4-5 hours at room temperature with rotational shaking and then washed three times with wash buffer.
Samples (25 μL) were transferred to the antibody-coated MSD plate and incubated overnight at 4° C. After removal of the lysates, the plate was washed three times with wash buffer, and 25 μL of #5656S (Cell signaling; rabbit monoclonal) secondary antibody (diluted to 0.25 μg/mL in 0.05% Tween-20 in blocking buffer) was added to each well and incubated with shaking for 1 Hour at room temperature. Following incubation with the secondary antibody, the wells were rinsed with wash buffer after which 25 μL of goat anti-rabbit SULFO TAG secondary detection antibody (required aspect of the MSD system) (diluted to 0.25 μg/mL in 0.05% Tween-20 in blocking buffer) was added to each well and incubated with shaking for 1 hour at room temperature. After rinsing three times with wash buffer, 150 μL of read buffer T with surfactant (MSD) were added to each empty well, and the plate was imaged on a SI 6000 imager (MSD) according to manufacturers' instructions provided for 96- or 384-well plates.

Cc1cn2nc(-c3cc(F)c4cc(C5CCNCC5)ncc4c3)cc(C)c2n1 [Compound 72, 7-(2,8-dimethylimidazo[1,2-b]pyridazin-6-yl)-5-fluoro-3-(piperidin-4-yl)isoquinoline] and Cc1cn2nc(-c3cc(F)c4cc(C5CCNCC5)nnc4c3)cc(C)c2n1 [Compound 74, 7-(2,8-dimethylimidazo[1,2-b]pyridazin-6-yl)-5-fluoro-3-(piperidin-4-yl)cinnoline] cannot be ordered by IC50: no more than 100 nM for the first, no more than 100 nM for the second.

Cc1cc(-c2cc(F)c3cc(C4CCNCC4)nnc3c2)cc2cn(C)nc12 [Compound 73, 7-(2,7-dimethyl-2H-indazol-5-yl)-5-fluoro-3-(piperidin-4-yl)cinnoline] and Cn1cc2cc(-c3cc(F)c4cc(C5CCNCC5)nnc4c3)cc(F)c2n1 [Compound 96, 5-fluoro-7-(7-fluoro-2-methyl-2H-indazol-5-yl)-3-(piperidin-4-yl)cinnoline] cannot be ordered by IC50: no more than 100 nM for the first, no more than 100 nM for the second.

Cc1cn2nc(-c3cc(F)c4cc(C5CCN(CCO)CC5)nnc4c3)cc(C)c2n1 [Compound 75, 2-{4-[7-(2,8-dimethylimidazo[1,2-b]pyridazin-6-yl)-5-fluorocinnolin-3-yl]piperidin-1-yl}ethanol] and CCCN1CCC(c2cc3c(F)cc(-c4cc(C)c5nc(C)cn5n4)cc3nn2)CC1 [Compound 77, 7-(2,8-dimethylimidazo[1,2-b]pyridazin-6-yl)-5-fluoro-3-(l-propylpiperidin-4-yl)cinnoline] cannot be ordered by IC50: no more than 100 nM for the first, no more than 100 nM for the second.

CCN1CCC(c2cc3c(F)cc(-c4cc(C)c5nc(C)cn5n4)cc3nn2)CC1 [Compound 76, 7-(2,8-dimethylimidazo[1,2-b]pyridazin-6-yl)-3-(1-ethylpiperidin-4-yl)-5-fluorocinnoline] and Cc1cn2nc(-c3cc(F)c4cc(C5CCN(CCF)CC5)nnc4c3)cc(C)c2n1 [Compound 83, 7-(2,8-dimethylimidazo[1,2-b]pyridazin-6-yl)-5-fluoro-3-[1-(2-fluoroethyl)piperidin-4-yl]cinnoline] cannot be ordered by IC50: no more than 100 nM for the first, no more than 100 nM for the second.

Cc1cn2nc(-c3cc(F)c4cc(C5CCN(C(C)C)CC5)nnc4c3)cc(C)c2n1 [Compound 78, 7-(2,8-dimethylimidazo[1,2-b]pyridazin-6-yl)-5-fluoro-3-[1-(propan-2-yl)piperidin-4-yl]cinnoline] and Cc1cn2nc(-c3cc(F)c4cc(C5CCN(C)CC5)nnc4c3)cc(C)c2n1 [Compound 79, 7-(2,8-dimethylimidazo[1,2-b]pyridazin-6-yl)-5-fluoro-3-(1-methylpiperidin-4-yl)cinnoline] cannot be ordered by IC50: no more than 100 nM for the first, no more than 100 nM for the second.

Cc1cn2nc(-c3cc(F)c4cc(N5CCNCC5)nnc4c3)cc(C)c2n1 [Compound 80, 7-(2,8-dimethylimidazo[1,2-b]pyridazin-6-yl)-5-fluoro-3-(piperazin-1-yl)cinnoline] and Cc1cn2nc(-c3cc(F)c4cc(N5CCC(N(C)C)CC5)nnc4c3)cc(C)c2n1 [Compound 88, 1-[7-(2,8-dimethylimidazo[1,2-b]pyridazin-6-yl)-5-fluorocinnolin-3-yl]-N,N-dimethylpiperidin-4-amine] cannot be ordered by IC50: no more than 100 nM for the first, no more than 100 nM for the second.

Cc1cn2nc(-c3cc(F)c4cc(N5C[C@@H](C)N[C@@H](C)C5)nnc4c3)cc(C)c2n1 [Compound 81, 7-(2,8-dimethylimidazo[1,2-b]pyridazin-6-yl)-3-[(3R,5S)-3,5-dimethylpiperazin-1-yl]-5-fluorocinnoline] and Cc1cn2nc(-c3cc(F)c4cc(N5CCC(N(C)C)C5)nnc4c3)cc(C)c2n1 (centres unmarked) [Compound 86, 1-[7-(2,8-dimethylimidazo[1,2-b]pyridazin-6-yl)-5-fluorocinnolin-3-yl]-N,N-dimethylpyrrolidin-3-amine] cannot be ordered by IC50: no more than 100 nM for the first, no more than 100 nM for the second.

Cc1cn2nc(-c3cc(F)c4nc(C5CCNCC5)cnc4c3)cc(C)c2n1 [Compound 82, 6-(2,8-dimethylimidazo[1,2-b]pyridazin-6-yl)-8-fluoro-2-(piperidin-4-yl)quinoxaline] and Cc1cn2nc(-c3ccc4cc(C5CCNCC5)nnc4c3)cc(C)c2n1 [Compound 84, 7-(2,8-dimethylimidazo[1,2-b]pyridazin-6-yl)-3-(piperidin-4-yl)cinnoline] cannot be ordered by IC50: no more than 100 nM for the first, no more than 100 nM for the second.

CCN1CCC(c2cc3ccc(-c4cc(C)c5nc(C)cn5n4)cc3nn2)CC1 [Compound 85, 7-(2,8-dimethylimidazo[1,2-b]pyridazin-6-yl)-3-(1-ethylpiperidin-4-yl)cinnoline] and CCN1CCC(c2cc3c(F)cc(-c4ccc5nc(C)cn5n4)cc3nn2)CC1 [Compound 100, 3-(1-ethylpiperidin-4-yl)-5-fluoro-7-(2-methylimidazo[1,2-b]pyridazin-6-yl)cinnoline] cannot be ordered by IC50: 100 to 500 nM for the first, no more than 100 nM for the second.

Cc1cn2nc(-c3cc(F)c4cc(C5C[C@H](C)N[C@@H](C)C5)nnc4c3)cc(C)c2n1 (stereo partly drawn) [Compound 87, 7-(2,8-dimethylimidazo[1,2-b]pyridazin-6-yl)-3-[(2S,6S)-2,6-dimethylpiperidin-4-yl]-5-fluorocinnoline] and Cc1cn2nc(-c3cc(F)c4cc(C5C[C@@H](C)N[C@@H](C)C5)nnc4c3)cc(C)c2n1 (stereo partly drawn) [Compound 90, 7-(2,8-dimethylimidazo[1,2-b]pyridazin-6-yl)-3-[(2R,4r,6S)-2,6-dimethylpiperidin-4-yl]-5-fluorocinnoline] cannot be ordered by IC50: no more than 100 nM for the first, no more than 100 nM for the second.

Cc1cn2nc(-c3cc(F)c4cc(N5CC[C@@H](N(C)C)C5)nnc4c3)cc(C)c2n1 [Compound 89, (3R)-1-[7-(2,8-dimethylimidazo[1,2-b]pyridazin-6-yl)-5-fluorocinnolin-3-yl]-N,N-dimethylpyrrolidin-3-amine] and Cc1cn2nc(-c3cc(F)c4cc(C5CCN(CC(F)F)CC5)nnc4c3)cc(C)c2n1 [Compound 98, 3-[1-(2,2-difluoroethyl)piperidin-4-yl]-7-(2,8-dimethylimidazo[1,2-b]pyridazin-6-yl)-5-fluorocinnoline] cannot be ordered by IC50: no more than 100 nM for the first, 100 to 500 nM for the second.

First: Cc1cn2cc(-c3cc(F)c4cc(C5CCNCC5)nnc4c3)cnc2n1 [Compound 91, 5-fluoro-7-(2-methylimidazo[1,2-a]pyrimidin-6-yl)-3-(piperidin-4-yl)cinnoline]
Second: Cc1cn2cc(-c3cc(F)c4cc(C5CCNCC5)nnc4c3)cc(F)c2n1 [Compound 92, 5-fluoro-7-(8-fluoro-2-methylimidazo[1,2-a]pyridin-6-yl)-3-(piperidin-4-yl)cinnoline]
The IC50 of the first is higher: 1000 to 3000 nM for the first, no more than 100 nM for the second. The second is the more potent here.

Cc1cn2cc(-c3cc(F)c4cc(C5CCNCC5)nnc4c3)cc(C#N)c2n1 [Compound 93, 6-[5-fluoro-3-(piperidin-4-yl)cinnolin-7-yl]-2-methylimidazo[1,2-a]pyridine-8-carbonitrile] and Cc1cn2cc(-c3cc(F)c4cc(C5CCNCC5)nnc4c3)cc(C)c2n1 [Compound 103, 7-(2,8-dimethylimidazo[1,2-a]pyridin-6-yl)-5-fluoro-3-(piperidin-4-yl)cinnoline] cannot be ordered by IC50: no more than 100 nM for the first, no more than 100 nM for the second.

Cc1nc2ccc(-c3cc(F)c4cc(C5CCNCC5)nnc4c3)cn2n1 [Compound 94, 5-fluoro-7-(2-methyl[1,2,4]triazolo[1,5-a]pyridin-6-yl)-3-(piperidin-4-yl)cinnoline] and Cc1cn2nc(-c3cc(F)c4cc(C5CCNCC5)nnc4c3)ccc2n1 [Compound 99, 5-fluoro-7-(2-methylimidazo[1,2-b]pyridazin-6-yl)-3-(piperidin-4-yl)cinnoline] cannot be ordered by IC50: 100 to 500 nM for the first, no more than 100 nM for the second.

Compared with Cn1cc2cc(-c3cc(F)c4cc(C5CCNCC5)nnc4c3)ccc2n1 [Compound 95, 5-fluoro-7-(2-methyl-2H-indazol-5-yl)-3-(piperidin-4-yl)cinnoline], Cn1cc2cc(-c3cc(F)c4cc(C5CCNCC5)nnc4c3)c(F)cc2n1 [Compound 97, 5-fluoro-7-(6-fluoro-2-methyl-2H-indazol-5-yl)-3-(piperidin-4-yl)cinnoline] is higher in IC50: no more than 100 nM for the first, 500 to 1000 nM for the second. The first is the more potent here.

Cc1cn2cc(-c3cc(F)c4cc(C5CCNCC5)nnc4c3)cc2c(C)n1 [Compound 101, 7-(1,3-dimethylpyrrolo[1,2-a]pyrazin-7-yl)-5-fluoro-3-(piperidin-4-yl)cinnoline] and Cn1cc2cc(-c3cc(F)c4cc(C5CCNCC5)nnc4c3)cc(C#N)c2n1 [Compound 104, 5-[5-fluoro-3-(piperidin-4-yl)cinnolin-7-yl]-2-methyl-2H-indazole-7-carbonitrile] cannot be ordered by IC50: no more than 100 nM for the first, no more than 100 nM for the second.

CCN1CCC(c2cc3c(F)cc(-c4cc(F)c5nc(C)cn5c4)cc3nn2)CC1 [Compound 102, 3-(1-ethylpiperidin-4-yl)-5-fluoro-7-(8-fluoro-2-methylimidazo[1,2-a]pyridin-6-yl)cinnoline] and CCc1cc(-c2cc(F)c3cc(C4CCNCC4)nnc3c2)nn2cc(C)nc12 [Compound 105, 7-(8-ethyl-2-methylimidazo[1,2-b]pyridazin-6-yl)-5-fluoro-3-(piperidin-4-yl)cinnoline] cannot be ordered by IC50: no more than 100 nM for the first, no more than 100 nM for the second.

In the case of COc1cc(-c2cc(F)c3cc(C4CCNCC4)nnc3c2)nn2cc(C)nc12 [Compound 106, 5-fluoro-7-(8-methoxy-2-methylimidazo[1,2-b]pyridazin-6-yl)-3-(piperidin-4-yl)cinnoline], the IC50 is reported as no more than 100 nM.
